Legend:
Details in all cases: 72 h
Caco-2 [1] = experiment: relative viability EC50 (midpoint between 100% and the lowest measured viability); higher = less toxic
Vero E6 [2] = experiment: as above
U2OS [3] = experiment: as above
HepG2 [4] = experiment: as above
Calu-3 [5] = experiment: as above
Caco-2 [6] = experiment: drug sensitivity score (DSS) for viability; higher = more toxic; extreme values may be limits of the assay
Vero E6 [7] = experiment: as above
U2OS [8] = experiment: as above
HepG2 [9] = experiment: as above
Calu-3 [10] = experiment: as above
Caco-2 [11] = experiment: cell viability relative to DMSO; higher = less toxic
Vero E6 [12] = experiment: as above
U2OS [13] = experiment: as above
HepG2 [14] = experiment: as above
Calu-3 [15] = experiment: as above

| Compound | relative viability EC50 (Caco-2 [1]) | relative viability EC50 (Vero E6 [2]) | relative viability EC50 (U2OS [3]) | relative viability EC50 (HepG2 [4]) | relative viability EC50 (Calu-3 [5]) | drug sensitivity score (Caco-2 [6]) | drug sensitivity score (Vero E6 [7]) | drug sensitivity score (U2OS [8]) | drug sensitivity score (HepG2 [9]) | drug sensitivity score (Calu-3 [10]) | cell viability (Caco-2 [11]; 1 nM) | cell viability (Caco-2 [11]; 10 nM) | cell viability (Caco-2 [11]; 100 nM) | cell viability (Caco-2 [11]; 1000 nM) | cell viability (Caco-2 [11]; 10000 nM) | cell viability (Vero E6 [12]; 1 nM) | cell viability (Vero E6 [12]; 10 nM) | cell viability (Vero E6 [12]; 100 nM) | cell viability (Vero E6 [12]; 1000 nM) | cell viability (Vero E6 [12]; 10000 nM) | cell viability (U2OS [13]; 1 nM) | cell viability (U2OS [13]; 10 nM) | cell viability (U2OS [13]; 100 nM) | cell viability (U2OS [13]; 1000 nM) | cell viability (U2OS [13]; 10000 nM) | cell viability (HepG2 [14]; 1 nM) | cell viability (HepG2 [14]; 10 nM) | cell viability (HepG2 [14]; 100 nM) | cell viability (HepG2 [14]; 1000 nM) | cell viability (HepG2 [14]; 10000 nM) | cell viability (Calu-3 [15]; 1 nM) | cell viability (Calu-3 [15]; 10 nM) | cell viability (Calu-3 [15]; 100 nM) | cell viability (Calu-3 [15]; 1000 nM) | cell viability (Calu-3 [15]; 10000 nM) |
| --- | --- | --- | --- | --- | --- | --- | --- | --- | --- | --- | --- | --- | --- | --- | --- | --- | --- | --- | --- | --- | --- | --- | --- | --- | --- | --- | --- | --- | --- | --- | --- | --- | --- | --- | --- |
| C#C[C@]1(O)CC[C@H]2[C@@H]3CCC4=CC(=O)CCC4=C3C=C[C@@]21CC [gestrinone] | > 10 µM | > 10 µM | > 10 µM | > 10 µM | > 10 µM | 0 | 0 | 0 | 0 | 0 | 107% | 116% | 86.1% | 102% | 101% | 96.6% | 97.2% | 101% | 89.3% | 101% | 94.7% | 95.8% | 91.6% | 99.9% | 93.9% | 96.7% | 103% | 101% | 103% | 90.6% | 106% | 93.3% | 99.9% | 97.8% | 94.1% |
| O=C(C[S+]([O-])Cc1ccco1)NC/C=C\COc1cc(CN2CCCCC2)ccn1 (stereo not given) [lafutidine] | > 10 µM | > 10 µM | > 10 µM | > 10 µM | > 10 µM | 0 | 0 | 0 | 0 | 0 | 91.5% | 91.3% | 97.6% | 97% | 90.6% | 101% | 100% | 100% | 93.5% | 96.1% | 99.3% | 100% | 96.9% | 102% | 94.8% | 98.3% | 95.4% | 97.9% | 105% | 104% | 91.4% | 106% | 95.6% | 93.2% | 92.3% |
| CC(C)(C#N)c1cc(Cn2cncn2)cc(C(C)(C)C#N)c1 [anastrozole] | > 10 µM | > 10 µM | > 10 µM | > 10 µM | > 10 µM | 0 | 0 | 0 | 0 | 0 | 89.4% | 101% | 92.9% | 96.9% | 95.8% | 94% | 99.2% | 97.7% | 99.3% | 107% | 92.7% | 98.3% | 96.3% | 104% | 113% | 89.5% | 94.3% | 96.1% | 97.5% | 96.4% | 97.1% | 98.7% | 93.8% | 116% | 103% |
| Cc1[nH]c(=O)c(C#N)cc1-c1ccc2nccn2c1 [olprinone] | > 10 µM | > 10 µM | > 10 µM | > 10 µM | > 10 µM | 0 | 0 | 0 | 0 | 0 | 98.7% | 99.6% | 91.2% | 92% | 94.8% | 98.5% | 106% | 94.2% | 102% | 96.7% | 105% | 102% | 101% | 99.9% | 102% | 93.2% | 102% | 103% | 104% | 104% | 107% | 112% | 93.2% | 104% | 98.3% |
| O=C1CCCN1CC#CCN1CCCC1 [oxotremorine-sesquifumarate] | > 10 µM | > 10 µM | > 10 µM | > 10 µM | > 10 µM | 0 | 0 | 0 | 0.9 | 0 | 110% | 99.1% | 94.7% | 103% | 98.3% | 105% | 105% | 104% | 93.8% | 92.8% | 97% | 94.3% | 95.3% | 100% | 102% | 101% | 96% | 104% | 94.9% | 82.6% | 96% | 96% | 91.9% | 105% | 101% |
| OC[C@@H](O)[C@@H](O)[C@H](O)[C@@H](O)CO [sorbitol] | > 10 µM | > 10 µM | > 10 µM | > 10 µM | > 10 µM | 0 | 0.3 | 0 | 0 | 0 | 96.4% | 105% | 100% | 109% | 93.6% | 102% | 99.9% | 103% | 88.8% | 92.2% | 104% | 99.5% | 96.6% | 101% | 95.5% | 95.3% | 84% | 94.7% | 94.8% | 82.3% | 101% | 98% | 98.3% | 102% | 101% |
| Oc1c(Cl)cc(Cl)cc1Sc1cc(Cl)cc(Cl)c1O [bithionol] | > 10 µM | > 10 µM | > 10 µM | > 10 µM | > 10 µM | 0.4 | 0 | 0 | 1.7 | 0 | 104% | 88.5% | 99% | 86% | 89.2% | 97.3% | 107% | 89.9% | 94.8% | 96.4% | 103% | 93.8% | 104% | 98.6% | 104% | 101% | 89.3% | 93% | 83.1% | 86.3% | 92.6% | 95.7% | 102% | 97.3% | 111% |
